Experimental findings from patent publication US9533019B1, “Calotropis procera extracts as anti-ulcerative colitis agents” (KING SAUD UNIVERSITY, priority 2016, dated 2017) are described below.

This assay concerns acetic acid-induced colitis in male Wistar rats. The experiment in a line: Acetic acid-induced ulcerative colitis. Type of assay: in vivo. How it is done: Male Wistar rats were divided into 9 experimental groups, each of 6 animals. Rats of groups 1 and 2 received the vehicle (5 mL/kg) and served as normal control and control colitis groups, and Group 3 was administered dexamethasone (0.1 mg/kg) and served as Reference Drug group. […] All medications were administered orally, once daily for 5 consecutive days after colitis induction. The first doses were administrated in all groups one hour after colitis induction. The colonic lesions were assessed by weighing the colon specimens and the wet weight/length ratio was calculated for all the rats. The specimens were examined under a dissecting microscope and the lesion scores were quantified by scoring system (0-5). Ulcer area was measured using a plane glass square. Each cell on the glass square was 1 mm^2 in area, and the number of cells was counted and the ulcer area was determined for each colon.
The Ulcer index (UI) was measured by summing the lesion score and the ulcer area for each colon specimen. The curative ratio was determined according to formula (1) below: […]
The inflammatory changes of the intestinal tract were associated with a significant increase of wet weight/length of the colon specimens as an indicator of inflammation. […] The colitis was induced by slowly infusion of 2 mL (4%, v/v) acetic acid in saline into the colon through the catheter.

Setting [1] is: 50 mg/kg orally once daily for 5 days after colitis induction, n=6.

The structures appear in SMILES notation. Marks after values point to notes of the source that are not given here.

On to `C[C@]12C=CC(=O)C=C1CC[C@@H]1[C@@H]2[C@@H](O)C[C@@]2(C)[C@H]1CC[C@]2(O)C(=O)CO` [Prednisolone], for which the “percent protection of control colitis” value (50 mg/kg orally for 5 days) was 54.9%. Further, under setting [1], the “Lesion score (0-5)” value is 2.22 ± 0.12, the Ulcer area is given as 2.53 ± 0.15* cm^2 and the Ulcer index amounted to 4.65 ± 0.27. Where the note is “colon wet weight/length, 50 mg/kg orally once daily for 5 days after colitis induction, n=6”, the “Wet W/L” value was 0.46 ± 0.02 g/cm.
